pIC50: −log10 of the molar value.
Key:
Type in all cases: cell-based
Aβ42 [1] = assay: Screening for γ-secretase-modulating activity, Method 1: Aβ42 sandwich ELISA in supernatant of SKNBE2 cells carrying APP 695 wild type (Tables 12a, 12b); details: Table 12b, Method 1, SKNBE2 cells carrying APP 695 wild type, cell supernatant ELISA, averaged IC50 values, percentage of control vs log concentration
Procedure, shortened: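 SKNBE2 cells expressing wild-type APP695 were treated with compound for 18 h, and secreted Aβ42 in the medium was quantified by sandwich ELISA (C-terminal-selective capture, biotinylated 3D6 detection, TMB read at 450 nm). IC50 came from 4-parameter fits of % inhibition or % of untreated control; toxicity was checked by WST-1.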

Aβtotal [2] = assay: Screening for γ-secretase-modulating activity, Method 1: Aβtotal sandwich ELISA in supernatant of SKNBE2 cells carrying APP 695 wild type (Tables 12a, 12b); details: Table 12b, Method 1, SKNBE2 cells carrying APP 695 wild type, cell supernatant ELISA, averaged IC50 values
Procedure, shortened: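 SKNBE2 cells expressing wild-type APP 695 were plated a day ahead, then exposed to compound in Ultraculture with 1% glutamine for 18 hours. Supernatant Aβtotal captured on 6E10 overnight at 4° C, detected with biotinylated 4G8 and streptavidin-peroxidase with a fluorogenic substrate. IC50 from 4-parameter dose-response fits.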

Aβ42 [3] = assay: Screening for γ-secretase-modulating activity, Method 2: Aβ42 Alphalisa in supernatant of SKNBE2 cells carrying APP 695 wild type (Table 12c); details: Method 2, Table 12c, incubated overnight
Protocol: (§1) Screening was carried out using SKNBE2 cells carrying the APP 695—wild type, grown in Dulbecco's Modified Eagle's Medium/Nutrient mixture F-12 (DMEM/NUT-mix F-12) (HAM) provided by Invitrogen (cat no. 10371-029) containing 5% Serum/Fe supplemented with 1% non-essential amino acids, 1-glutamine 2 mM, Hepes 15 mM, penicillin 50 U/ml (units/ml) en streptomycin 50 μg/ml. Cells were grown to near confluency.
(§2) The screening was performed using a modification of the assay as described in Citron et al (1997) Nature Medicine 3: 67. Briefly, cells were plated in a 384-well plate at 10^4 cells/well in Ultraculture (Lonza, BE12-725F) supplemented with 1% glutamine (Invitrogen, 25030-024), 1% non-essential amino acid (NEAA), penicillin 50 U/ml en streptomycin 50 μg/ml in the presence of test compound at different test concentrations. The cell/compound mixture was incubated overnight at 37° C., 5% CO2, The next day the media were assayed by two sandwich immuno-assays, for Aβ42 and Aβtotal.
(§3) Aβtotal and Aβ42 concentrations were quantified in the cell supernatant using the Aphalisa technology (Perkin Elmer). Alphalisa is a sandwich assay using biotinylated antibody attached to streptavidin coated donorbeads and antibody conjugated to acceptor beads. In the presence of antigen, the beads come into close proximity. The excitation of the donor beads provokes the release of singlet oxygen molecules that trigger a cascade of energy transfer in the acceptor beads, resulting in light emission. To quantify the amount of Aβ42 in the cell supernatant, monoclonal antibody specific to the C-terminus of Aβ42 (JRF/cAβ42/26) was coupled to the receptor beads and biotinylated antibody specific to the N-terminus of Aβ (JRF/AβN/25) was used to react with the donor beads. To quantify the amount of Aβtotal in the cell supernatant, monoclonal antibody specific to the N-terminus of Aβ (JRF/AβN/25) was coupled to the receptor beads and biotinylated antibody specific to the mid region of Aβ (biotinylated 4G8) was used to react with the donor beads.
(§4) To obtain the values reported in Table 12c, the data are calculated as percentage of the maximum amount of amyloid Beta 42 measured in the absence of the test compound. The sigmoidal dose response curves were analyzed using non-linear regression analysis with percentage of the control plotted against the log concentration of the compound. A 4-parameter equation was used to determine the IC50.

Aβtotal [4] = assay: Screening for γ-secretase-modulating activity, Method 2: Aβtotal Alphalisa in supernatant of SKNBE2 cells carrying APP 695 wild type (Table 12c); details: Method 2, Table 12c, incubated overnight
Protocol: as §1, §2, §3, §4

CC(=O)N(C)Cc1c(-c2ccccc2Cl)nc2c(Nc3ccc(-n4cnc(C)c4)c(F)c3)cccn12 [Compound 102]
pIC50 (Aβ42 [1]; Homo sapiens): 8.00
pIC50 (Aβtotal [2]; Homo sapiens): < 5.52
pIC50 (Aβ42 [3]; Homo sapiens): 7.85
pIC50 (Aβtotal [4]; Homo sapiens): < 5.00

COCc1c(-c2ccccc2Cl)nc2c(Nc3ccc(-n4cnc(C)c4)c(F)c3)cccn12 [Compound 103]
pIC50 (Aβ42 [1]): 7.89
pIC50 (Aβtotal [2]): < 5.52
pIC50 (Aβ42 [3]): 7.72
pIC50 (Aβtotal [4]): < 5.00

COc1cc(Nc2cccn3cc(CC(F)(F)F)nc23)ccc1-n1cnc(C)c1 [Compound 109]
pIC50 (Aβ42 [1]): 7.82
pIC50 (Aβtotal [2]): < 5.52
pIC50 (Aβ42 [3]): 7.22
pIC50 (Aβtotal [4]): < 5.00

CCOC(=O)c1cn2cccc(Nc3ccc(-n4cnc(C)c4)c(OC)c3)c2n1 [Compound 113]
pIC50 (Aβ42 [1]): 7.42
pIC50 (Aβtotal [2]): < 5.52
pIC50 (Aβ42 [3]): 6.84
pIC50 (Aβtotal [4]): < 5.00

Cc1cn(-c2ccc(Nc3cccn4cc(C5CCOCC5)nc34)cc2F)cn1 [Compound 118]
pIC50 (Aβ42 [1]; Homo sapiens): 6.48
pIC50 (Aβtotal [2]; Homo sapiens): < 5.52
pIC50 (Aβ42 [3]; Homo sapiens): 6.43
pIC50 (Aβtotal [4]; Homo sapiens): < 5.00

Cc1cn(-c2ccc(Nc3cccn4cc(C)nc34)cc2F)cn1 [Compound 119]
pIC50 (Aβ42 [1]; Homo sapiens): 5.78
pIC50 (Aβtotal [2]; Homo sapiens): < 5.52
pIC50 (Aβ42 [3]; Homo sapiens): 6.22
pIC50 (Aβtotal [4]; Homo sapiens): 5.21

Cc1cn(-c2ccc(Nc3cccn4cc(C5CC5)nc34)cc2F)cn1 [Compound 120]
pIC50 (Aβ42 [1]; Homo sapiens): 6.23
pIC50 (Aβtotal [2]; Homo sapiens): < 4.52
pIC50 (Aβ42 [3]; Homo sapiens): 6.44
pIC50 (Aβtotal [4]; Homo sapiens): < 5.00

COc1cc(Nc2cccn3c(C)c(-c4ccccc4Cl)nc23)ccc1-n1cnc(C)n1 [Compound 124]
pIC50 (Aβ42 [1]; Homo sapiens): 7.96
pIC50 (Aβtotal [2]; Homo sapiens): < 5.52
pIC50 (Aβ42 [3]; Homo sapiens): 7.74
pIC50 (Aβtotal [4]; Homo sapiens): 5.04

COCc1c(-c2ccc(F)cc2)nc2c(Nc3ccc(-n4cnc(C)n4)c(OC)c3)cccn12 [Compound 125]
pIC50 (Aβ42 [1]): 7.52
pIC50 (Aβtotal [2]): < 5.52
pIC50 (Aβ42 [3]): 7.29
pIC50 (Aβtotal [4]): 5.10

COCCCc1c(-c2ccc(F)cc2)nc2c(Nc3ccc(-n4cnc(C)n4)c(OC)c3)cccn12 [Compound 129]
pIC50 (Aβ42 [1]): 7.34
pIC50 (Aβtotal [2]): < 5.00
pIC50 (Aβ42 [3]): 7.13
pIC50 (Aβtotal [4]): < 5.00

COc1cc(Nc2cccn3cc(-c4cc(C#N)ccc4C)nc23)ccc1-n1cnc(C)n1 [Compound 135]
pIC50 (Aβ42 [1]; Homo sapiens): 6.20
pIC50 (Aβtotal [2]; Homo sapiens): < 5.00
pIC50 (Aβ42 [3]; Homo sapiens): 6.99
pIC50 (Aβtotal [4]; Homo sapiens): < 5.00

COc1cc(Nc2cccn3cc(C4CCOCC4)nc23)ccc1-n1cnc(C)n1 [Compound 136]
pIC50 (Aβ42 [1]; Homo sapiens): 6.17
pIC50 (Aβtotal [2]; Homo sapiens): < 4.52
pIC50 (Aβ42 [3]; Homo sapiens): 6.09
pIC50 (Aβtotal [4]; Homo sapiens): < 5.00

COc1cc(Nc2cccn3cc(CC4CCOCC4)nc23)ccc1-n1cnc(C)n1 [Compound 137]
pIC50 (Aβ42 [1]; Homo sapiens): 5.86
pIC50 (Aβtotal [2]; Homo sapiens): < 5.52
pIC50 (Aβ42 [3]; Homo sapiens): 6.06
pIC50 (Aβtotal [4]; Homo sapiens): < 5.00

COc1nc(Nc2cccn3cc(C)nc23)ccc1-n1cnc(C)c1 [Compound 144]
pIC50 (Aβ42 [1]): 7.00
pIC50 (Aβtotal [2]): < 5.52
pIC50 (Aβ42 [3]): 6.92
pIC50 (Aβtotal [4]): < 5.00

Cc1cn(-c2ccc(Nc3cc(F)cn4cc(C5CCOCC5)nc34)cc2F)cn1 [Compound 149]
pIC50 (Aβ42 [1]): 6.41
pIC50 (Aβtotal [2]): < 5.00
pIC50 (Aβ42 [3]): 6.76
pIC50 (Aβtotal [4]): < 5.00

COc1cc(Nc2cc(C(F)(F)F)cn3cc(C(C)(C)O)nc23)ccc1-n1cnc(C)c1 [Compound 151]
pIC50 (Aβ42 [1]): 6.29
pIC50 (Aβtotal [2]): < 5.52
pIC50 (Aβ42 [3]): 6.66
pIC50 (Aβtotal [4]): < 5.00

CCOC(=O)c1cn2cc(C(F)(F)F)cc(Nc3ccc(-n4cnc(C)c4)c(OC)c3)c2n1 [Compound 155]
pIC50 (Aβ42 [1]): 7.62
pIC50 (Aβtotal [2]): < 5.52
pIC50 (Aβ42 [3]): 7.55
pIC50 (Aβtotal [4]): < 5.00

COc1cc(Nc2cc(Cl)nn3cc(-c4cc(F)ccc4C)nc23)ccc1-n1cnc(C)c1 [Compound 157]
pIC50 (Aβ42 [1]): 6.99
pIC50 (Aβtotal [2]): < 5.52
pIC50 (Aβ42 [3]): 7.30
pIC50 (Aβtotal [4]): 5.13

Cc1cn(-c2ccc(Nc3cc(C(F)(F)F)nn4cc(C5CCOCC5)nc34)cc2F)cn1 [Compound 168]
pIC50 (Aβ42 [1]): 5.52
pIC50 (Aβtotal [2]): < 5.52
pIC50 (Aβ42 [3]): 6.42
pIC50 (Aβtotal [4]): 5.00

Cc1cn(-c2ccc(Nc3cc(C(F)(F)F)nn4cc(C)nc34)cc2F)cn1 [Compound 173]
pIC50 (Aβ42 [1]): < 5.52
pIC50 (Aβtotal [2]): < 5.52
pIC50 (Aβ42 [3]): < 5.00
pIC50 (Aβtotal [4]): < 5.00

COc1cc(Nc2nccn3cc(-c4ccc(F)cc4)nc23)ccc1-n1cnc(C)c1 [Compound 175]
pIC50 (Aβ42 [1]): 7.39
pIC50 (Aβtotal [2]): < 5.52
pIC50 (Aβ42 [3]): 7.14
pIC50 (Aβtotal [4]): 5.28

COc1cc(Nc2nccn3cc(-c4ccc(F)cc4C)nc23)ccc1-n1cnc(C)n1 [Compound 176]
pIC50 (Aβ42 [1]; Homo sapiens): 6.49
pIC50 (Aβtotal [2]; Homo sapiens): < 5.00
pIC50 (Aβ42 [3]; Homo sapiens): 6.97
pIC50 (Aβtotal [4]; Homo sapiens): 5.08

COc1nc(Nc2cccn3cc(CC(F)(F)F)nc23)ccc1-n1cnc(C)c1 [Compound 179]
pIC50 (Aβ42 [3]; Homo sapiens): 7.11
pIC50 (Aβtotal [4]; Homo sapiens): < 5.00

COc1nc(Nc2cccn3cc(CC(F)(F)F)nc23)ccc1-n1cnc(C)n1 [Compound 180]
pIC50 (Aβ42 [3]): 6.25
pIC50 (Aβtotal [4]): 5.20

Reference: patent publication US8546440B2, “Substituted bicyclic imidazole derivatives as gamma secretase modulators” (Janssen Pharmaceuticals, Inc., priority 2008, dated 2013)
